This passage reports logP and chromatographic logP results from patent publication US20100081679A1, “DIAMINOPYRIMIDINES AS FUNGICIDES” (Bayer CropScience AG, priority 2007, published 2010).

Structures can show the parent of a compound that is named as a salt. Marks after values point to notes of the source that are not given here.

One data set is described as follows: logP determination via retention times, calibrated with unbranched alkan-2-ones. In kind it is physicochemical. To be noted: HPLC on reversed-phase C 18, EEC Directive 79/831 Annex V.A8; method *: 40° C., 0.1% aqueous formic acid and acetonitrile, linear gradient 10% to 95% acetonitrile.
Take `CCOC(=O)Cc1ccc(Nc2ncc(Br)c(NCC3CC3)n2)cc1` [compound 486]: the logP is 2.18*.
The same measure, in the same setting: under `O=CNc1cccc(Nc2ncc(Cl)c(NCC3CC3)n2)c1` [compound 546] stands 1.46*; under `CCOC(=O)Nc1ccc(Nc2ncc(Cl)c(NCC3CC3)n2)cc1O` [compound 542], 1.68*.
The same measure, in the same setting: under `FC(F)(F)c1cnc(Nc2cccc(N3CCCC3)c2)nc1NC1CC1` [compound 564] stands 3.55*; under `CN1CC(=O)N(c2ccc(Nc3ncc(Cl)c(NCC4CC4)n3)cc2)C1=O` [compound 523], 1.53*.

The same data set, now with this note: HPLC on reversed-phase C18, method *: 40° C., 0.1% aqueous formic acid and acetonitrile, linear gradient 10% to 95% acetonitrile.
For `O=C(c1ccc(Nc2ncc(C(F)(F)F)c(NCC3CC3)n2)cc1)N1CCCCC1` [compound 704], the logP is given as 3.04*.
The same measure, in the same setting: under `CN(C=O)c1ccc(Nc2ncc(Cl)c(NC3CC3)n2)cc1` [compound 978] stands 1.44*.
Consider `FC(F)c1cnc(Nc2ccccc2)nc1NC1CC1` [compound 722], for which the logP was 1.56*.
Turning to `O=C1CCCCN1c1cccc(Nc2ncc(Br)c(NC3CC3)n2)c1` [compound 733], the logP is listed as 1.55*.
For `COc1ccc(Nc2ncc(Br)c(NC3CC3)n2)cc1OC` [compound 742], the logP is on record as 1.53*.
On the same count and under the same terms, under `CCNC(=O)c1cccc(Nc2ncc(Br)c(NC3CC3)n2)c1` [compound 702] stands 1.44*; under `CCSc1cccc(Nc2ncc(Br)c(NC3CC3)n2)c1` [compound 708], 2.92*; under `CCC(C)Sc1cccc(Nc2ncc(Cl)c(NC3CC3)n2)c1` (stereo not drawn) [compound 665], 3.69*.
Same read-out and setting: with `COCc1cccc(Nc2ncc(C(F)F)c(NCC3CC3)n2)c1` [compound 772] the figure was 1.73*.
On the same count and under the same terms, with `N#CCc1cccc(Nc2ncc(Cl)c(NC3CC3)n2)c1` [compound 712] the figure was 1.66*.
As to `FC(F)Oc1ccc(Nc2ncc(Br)c(NC3CC3)n2)cc1` [compound 748], the logP is on record as 2.21*.
The same measure, in the same setting: with `CC(=O)c1cc(Nc2ncc(Cl)c(NC3CC3)n2)ccc1O` [Example 101] the figure was 1.65*; with `CCC(=O)Nc1ccc(Nc2ncc(Cl)c(NC3CC3)n2)cc1` [compound 711], 1.24*.
On to `Fc1cc(C(F)(F)F)ccc1Nc1ncc(Cl)c(NC2CC2)n1` [compound 934], for which the logP was 3.68*.

Still in this data set, the particulars now being: HPLC on reversed-phase C18, method *: 40° C.; mobile phase 0.1% aqueous formic acid and acetonitrile; linear gradient 10% to 95% acetonitrile.
With `Fc1ccc(Nc2ncc(Cl)c(NC3CC3)n2)cc1F` [compound 321], the logP is recorded as 2.59*.
On the same count and under the same terms, with `CC(C)OC(=O)Nc1cccc(Nc2ncc(Br)c(NC3CC3)n2)c1` [compound 331] the figure was 2.11*.
Still for that read-out and setting: with `Clc1cccc(Nc2ncc(Cl)c(NC3(c4ccccc4Cl)CC3)n2)c1` [compound 319] the figure was 5.18*.
As to `O=S(=O)(c1cccc(Nc2ncc(Br)c(NC3CC3)n2)c1)N1CCCCC1` [compound 354], the logP is on record as 2.16*.
On the same count and under the same terms, with `COC(c1cccc(Nc2ncc(Br)c(NC3CC3)n2)c1)C(F)(F)F` (stereo not drawn) [compound 333] the figure was 2.82*.

The same data set, now with this note: HPLC on reversed-phase C18 column (EEC Directive 79/831 Annex V.A8); method *: 40° C.; 0.1% aqueous formic acid and acetonitrile; linear gradient 10% to 95% acetonitrile.
Regarding `CS(=O)(=O)Cc1cccc(Nc2ncc(Cl)c(NC3CC3)n2)c1` [compound 243], the logP is 1.46*.
As for `CC(C)(C)C(=O)Nc1ccc(Nc2ncc(C(F)(F)F)c(NCC3CC3)n2)cc1` [compound 201], the logP is 2.6*.
In the case of `CC(=O)c1cc(Nc2ncc(Cl)c(NC3CC3)n2)ccc1Cl` [compound 249], the logP was 2.43*.
Still for that read-out and setting: under `COc1cc(Nc2ncc(Cl)c(NC3CC3)n2)ccc1F` [compound 259] stands 1.9*; under `N#CCC(=O)c1ccc(Nc2ncc(Cl)c(NC3CC3)n2)cc1` [compound 248], 2.09*; under `COc1ccc(Nc2ncc(Br)c(NCC3CC3)n2)cn1` [compound 191], 1.63*.
Same read-out and setting: under `COC(c1cccc(Nc2ncc(Cl)c(NC3CC3)n2)c1)C(F)(F)F` (stereo not drawn) [compound 270] stands 2.69*.

Staying with this data set, now noted: HPLC reversed-phase C 18, EEC Directive 79/831 Annex V.A8; method **: 43° C., 0.1% aqueous phosphoric acid and acetonitrile, linear gradient 10% to 95% acetonitrile.
As for `COCc1cccc(Nc2nc(C)c(Cl)c(NC3CC3)n2)c1` [compound 839], the logP is 1.67**.

Staying with this data set, now noted: HPLC reversed-phase C 18, EEC Directive 79/831 Annex V.A8; method *: 40° C., 0.1% aqueous formic acid and acetonitrile, linear gradient 10% to 95% acetonitrile.
Consider `CC(=O)Cc1ccc(Nc2ncc(Cl)c(NC3CC3)n2)cc1` [compound 851], for which the logP was 1.48*.
`CC(=O)Nc1ccc(Nc2ncc(Cl)c(NC3CC3)n2)cc1O` [compound 822]: the logP is 1*.
The same measure, in the same setting: under `CC(=O)Cc1cccc(Nc2ncc(Cl)c(NCC3CC3)n2)c1` [compound 781] stands 1.67*; under `Brc1cnc(Nc2ccccc2)nc1NC1CC1` [compound 836], 2.56*; under `CC(=O)Cc1cccc(Nc2ncc(C(F)(F)F)c(NC3CC3)n2)c1` [compound 783], 2.42*.
The same measure, in the same setting: under `CC(C)(O)c1cccc(Nc2ncc(Cl)c(NC3CC3)n2)c1` [compound 784] stands 1.47*.

The same data set, now with this note: method **: HPLC reversed-phase C 18, 43° C., 0.1% aqueous phosphoric acid and acetonitrile, linear gradient 10% to 95% acetonitrile.
In the case of `NS(=O)(=O)c1ccc(Nc2ncc(Cl)c(NCC3CC3)n2)cc1` [compound 8], the logP is 1.52**.

Still in this data set, the particulars now being: method **: HPLC reversed-phase C 18, temperature 43° C.; mobile phase 0.1% aqueous phosphoric acid and acetonitrile; linear gradient 10% to 95% acetonitrile.
For the molecule `CSc1ccc(Nc2ncc(C(F)(F)F)c(NC3CC3)n2)cc1` [compound 653], the logP is 3.35**.

Still in this data set, the particulars now being: method *: HPLC reversed-phase C18, 40° C., 0.1% aqueous formic acid and acetonitrile, linear gradient 10% to 95% acetonitrile.
For the molecule `COC(=O)Nc1ccc(Nc2ncc(Br)c(NC3CC3)n2)cc1Cl` [compound 430], the logP is 2.2*.
Same read-out and setting: with `CN(C)S(=O)(=O)c1ccc(Nc2ncc(Cl)c(NC3CC3)n2)cc1.Cl` [Example 78] the figure was 2.26*; with `Clc1cnc(Nc2ccccc2)nc1NC1CC1` [Example 76], 1.84*; with `O=C(Nc1cccc(Nc2ncc(Cl)c(NC3CC3)n2)c1)C1CC1` [Example 84], 1.62*.
For `CC(C)COc1cccc(Nc2ncc(Cl)c(NC3CC3)n2)c1` [compound 444], the logP is 3.17*.

Staying with this data set, now noted: method *: HPLC reversed-phase C 18, temperature 40° C.; mobile phase 0.1% aqueous formic acid and acetonitrile; linear gradient 10% to 95% acetonitrile.
Take `COC(=O)Nc1cccc(Nc2ncc(C#N)c(NC3CC3)n2)c1` [compound 612]: the logP is recorded as 2.06*.
As for `CSc1ccc(Nc2ncc(C(F)(F)F)c(NC3CC3)n2)cc1` [compound 653], the logP is on record as 3.1*;.
With `N#Cc1cnc(Nc2ccc3c(c2)CC(=O)N3)nc1NC1CC1` [compound 613], the logP is 1.5*.
Turning to `O=C1NC(=O)C(c2ccc(Nc3ncc(C(F)(F)F)c(NC4CC4)n3)cc2)N1` (stereo not drawn) [compound 658], the logP is 1.58*.
As to `COc1cccc(Nc2ncc(C(F)(F)F)c(NC3CC3)n2)c1` [compound 640], the logP was 2.73*.
Still for that read-out and setting: with `CS(=O)(=O)Cc1cccc(Nc2ncc(Cl)c(NCC3CC3)n2)c1` [compound 566] the figure was 1.38*.

Still in this data set, the particulars now being: method *: HPLC, reversed-phase C 18, 40° C., mobile phase 0.1% aqueous formic acid and acetonitrile, linear gradient from 10% to 95% acetonitrile.
In the case of `CCCS(=O)(=O)c1cccc(Nc2ncc(C(F)(F)F)c(NCC3CC3)n2)c1` [compound 1068], the logP is on record as 3.25*.
Same read-out and setting: with `OCc1cc(Nc2ncc(Cl)c(NC3CC3)n2)ccc1F` [compound 1047] the figure was 1.25*; with `CCN(CC)C(=O)c1ccc(Nc2ncc(Cl)c(NC3CC3)n2)cc1` [compound 984], 1.84*.
The same measure, in the same setting: with `CCSC(C)c1cccc(Nc2ncc(C(F)(F)F)c(NCC3CC3)n2)c1` (stereo not drawn) [compound 988] the figure was 4.37*.

The same data set, now with this note: pH 2.3; read-out: logP (pH2.3).
In the case of `CC(C)Oc1ccc(Nc2ncc(Cl)c(NCC3CC3)n2)cc1` [Example 55, 5-Chloro-N^4-(cyclopropylmethyl)-N^2-(4-isopropoxyphenyl)pyrimidine-2,4-diamine hydrochloride], the chromatographic logP was found to be 2.11.

Staying with this data set, now noted: reversed-phase C18 HPLC column; method **: HPLC reversed-phase C 18, 43° C., 0.1% aqueous phosphoric acid and acetonitrile, linear gradient 10% to 95% acetonitrile; read-out: logP.
`CC(C)Oc1ccc(Nc2ncc(Cl)c(NCC3CC3)n2)cc1` [Example 55, 5-Chloro-N^4-(cyclopropylmethyl)-N^2-(4-isopropoxyphenyl)pyrimidine-2,4-diamine hydrochloride]: the chromatographic logP amounted to 2.11.
